The source of these data is patent US9932339B2, “Helquats with heteroaromatic substituents, preparation thereof, and use thereof as G-quadruplex stabilizers” (USTAV ORGANICKE CHEMIE A BIOCHEMIE AV CR, V.V.I., priority 2014, dated 2018).

Where two headings read alike, the source gives them in different places.

Experiment [1] has as its system G-quadruplex in promoter region of the c-myc gene (NHE III1 segment). Kind of experiment: Dual luciferase analysis with plasmid pGL4.10-myc (luc2) in HGC-27 cells. The experiment is classed as cell-based, human. The following applies: for inhibition at 50 µM / activity at 50 µM: Homo sapiens; for inhibition at 50 µM: HGC-27, text summary of tab. 5 (50 μmol·l^−1), read-out: inhibition of expression of firefly luciferase as compared to control; for activity at 50 µM: read-out: luciferase expression relative to control (control = 100%); for Quantification of expression relative to control (%): control = 100%. An excerpt:
A dual luciferase analysis was used to determine the degree of stabilization of G-quadruplex in a promoter region of the c-myc gene on cellular level. Stabilization of G-quadruplex is expressed as the ratio of expression of two luciferases (firefly and Renilla) from the co-transfected vectors pGL4.10-myc (luc2) and pRL-TK (Renilla) into a cell line HGC-27 expressing c-myc protein. Expression of the reporter gene (firefly luciferase) from pGL4.10-myc vector is controlled by the c-myc regulatory region of a length of 860 by (in the range from −306 to +554). The inserted sequence contains NHE III1 segment which forms G-quadruplex [Yang, D. et al. (2010) Future Med Chem., 2, 619], and is responsible for as much as 90% of the transcriptional activity of the c-myc gene.
Level of expression of firefly luciferase reporter gene corresponds to promoter activity of c-myc and thus to the degree of stabilization of the G-quadruplex. The signal is normalized to Renilla luciferase expression from pRL-TK vector under the control of a constitutive viral thymidine kinase (HSV-TK) promoter. The amount of Renilla luciferase expression serves as an internal control for normalization of firefly signal on transfection efficiency in the sample. Plasmids pGL4.10-myc (luc2) and pRL-TK were propagated in Escherichia coli (DH5α strain) and purified using the Qiagen Plasmid Mini and Midi kits. Cells were cultured under standard conditions and in exponential growth phase were seeded into a white 96-well microtiter plates. Transfection was carried out using a transfection reagent X-tremeGENE HP DNA in OptiMEM media for two hours. The ratio of reporter and control vector was 1:1 and the ratio of transfection reagent to the total amount of DNA was 1:1. Two hours after transfection helquats were added in a concentration of 50 μmol·l^−1. Quantity of firefly and Renilla luciferases in the samples was determined 24 hours after transfection. Dual luciferase analysis was performed using a commercially available kit (Promega, cat. No. E1960) according to manufacturer's instructions. Luminescence was measured using a luminometer EnSpire Alpha Plate Reader. The data obtained were normalized to the Renilla luciferase signal and then the values were related to control.

In a further experiment the test system is HUVEC. Briefly: XTT cytotoxicity/proliferation assay, HUVEC. The experiment is classed as cell-based, human. On the procedure: To assess the antiproliferative effects of the tested substances in vitro, tumor cell line CCRF-CEM derived from acute lymphoblastic leukemia and normal (healthy) HUVEC endothelial cells from umbilical vein were used. Both of these cell lines were cultured under optimal conditions for their growth in the appropriate medium in plastic bottles or plastic Petri dishes of various sizes (TPP, BD Biosciences) at 37° C., 5% CO2 and 95% humidity. HUVEC cells were purchased from BD Biosciences. CCRF-CEM cell line was obtained from ATCC/LGC Standards (American Type Cell Collection). Normal human endothelial cells from the umbilical vein are adherent cells, which were grown in plastic Petri dishes coated with collagen I. The culture medium (E-STIMTM; BD Biosciences, cat. […] Then, 5 ml of complete culture media E-STIM™ was added and the cells were centrifuged (180×g, 7 minutes), resuspended and transferred in a desired amount in a new Petri dish with fresh medium. In the experiments cells between passages 3 and 8 (after thawing) were used. Population doubling time of HUVEC cells under the used culture conditions is 38 hours. For testing of the sensitivity of cell lines to studied helquats XTT cytotoxicity/proliferation assay for determination of cell viability was used. This method is based on the ability of metabolically active cells to reduce the yellow tetrazolium salt XTT to orange formazan. The rate of conversion is measured as the increase in absorbance at 492 nm and is proportional to the enzymatic activity of mitochondrial dehydrogenases and thus the number of metabolically active (viable) cells. […] Thus it reflects the effectiveness of the test substance towards the tested cell line. Cells in exponential growth phase were plated into 96-well microtiter plate at a concentration of 3000 cells per well. Each well contained 90 μl of cell suspension. The following day, 10 μl of 10× concentrated test substances was added. […] In addition to the part of the plate containing the mentioned dilutions of test compounds there were always two control columns present, first column with medium alone (i.e. blank) and the second column with the cells in medium without test compounds (control). Into the blank and control wells the same volume of solvent (water) as the volume of the substances was added. After 72 hours of treatment with substances the measurement of viability was performed according to the manufacturer instructions. Briefly, into each well of a 96-well microtiter plate 50 μl of the prepared working solution of XTT (detection reagent) was added and then the microtiter plate was returned to the CO2 incubator. After 2 hours, the absorbance of each well at 492 nm (reference wavelength 690 nm) was measured using a multifunctional microplate reader (Tecan Genios, Austria).
For orientation: Formazan colour is commonly taken as a measure of viable cells.

A further experiment deals with CCRF-CEM. Briefly: XTT cytotoxicity/proliferation assay, CCRF-CEM. It is filed as cell-based. On the procedure:
To assess the antiproliferative effects of the tested substances in vitro, tumor cell line CCRF-CEM derived from acute lymphoblastic leukemia and normal (healthy) HUVEC endothelial cells from umbilical vein were used. Both of these cell lines were cultured under optimal conditions for their growth in the appropriate medium in plastic bottles or plastic Petri dishes of various sizes (TPP, BD Biosciences) at 37° C., 5% CO2 and 95% humidity. HUVEC cells were purchased from BD Biosciences. CCRF-CEM cell line was obtained from ATCC/LGC Standards (American Type Cell Collection).
Suspension cell line CCRF-CEM is a continuous in vitro culture of acute lymphoblastic leukemia. Cell line CCRF-CEM was grown in RPMI 1640 medium (Sigma-Aldrich, cat. No. R8758) supplemented with 2 mmol·l^−1 glutamine (Invitrogen, cat. No. 35050-038), 10% fetal bovine serum (FBS; Sigma-Aldrich, cat. No. F9665), 100 IU/ml penicillin, 100 μg/ml streptomycin (Sigma-Aldrich, cat. No. P0781). Passaging was carried out 2-3 times a week. Population doubling time of CCRF-CEM cells under the used culture conditions is 20 hours.
For testing of the sensitivity of cell lines to studied helquats XTT cytotoxicity/proliferation assay for determination of cell viability was used. This method is based on the ability of metabolically active cells to reduce the yellow tetrazolium salt XTT to orange formazan. The rate of conversion is measured as the increase in absorbance at 492 nm and is proportional to the enzymatic activity of mitochondrial dehydrogenases and thus the number of metabolically active (viable) cells. The output is the IC50 value corresponding to the concentration of the test substance that causes a decrease in the number of viable cells by half (i.e. 50% slowdown of cell division) relative to the control, untreated population. Thus it reflects the effectiveness of the test substance towards the tested cell line.
Cells in exponential growth phase were plated into 96-well microtiter plate at a concentration of 3000 cells per well. Each well contained 90 μl of cell suspension. The following day, 10 μl of 10× concentrated test substances was added. Effect of helquats has been studied in the concentration range 1-100 μmol·l^−1 (or 1, 2.5, 5, 7.5, 10; 15; 25; 50 and 100 μmol·l^−1). In addition to the part of the plate containing the mentioned dilutions of test compounds there were always two control columns present, first column with medium alone (i.e. blank) and the second column with the cells in medium without test compounds (control). Into the blank and control wells the same volume of solvent (water) as the volume of the substances was added. After 72 hours of treatment with substances the measurement of viability was performed according to the manufacturer instructions. Briefly, into each well of a 96-well microtiter plate 50 μl of the prepared working solution of XTT (detection reagent) was added and then the microtiter plate was returned to the CO2 incubator. After 2 hours, the absorbance of each well at 492 nm (reference wavelength 690 nm) was measured using a multifunctional microplate reader (Tecan Genios, Austria).
The results of determination of the viability of cancer and normal cells after treatment with different concentrations of test substances are summarized in Table 9. […] Each concentration of a helquat was tested in triplicates within one IC50 value determination. Each of these IC50 value determinations was repeated in at least three independent experiments. Values above 100 μmol·l^−1 were obtained by extrapolation of data measured in the concentration range 0-100 μmol·l^−1 of helquats.

Where [2] appears, read: helquat 50 μmol · l^−1, HGC-27, firefly normalized to Renilla, 24 hours after transfection.
Setting [3] is: Homo sapiens, HUVEC, 72 hours of treatment, values above 100 μmol·l^−1 obtained by extrapolation, read-out: IC50 HUVEC.
The mark [4] stands for this setting: Homo sapiens, HUVEC, 72 hours, summary of table 9, read-out: concentrations non-toxic towards HUVEC cells.
Setting [5] is: Homo sapiens, CCRF-CEM, 72 hours of treatment, read-out: IC50 CCRF CEM.
The mark [6] stands for this setting: Homo sapiens, CCRF-CEM, 72 hours, summary of table 9, read-out: concentrations toxic towards CCRF-CEM cells.

The inhibition is the relative decrease from the control value, in per cent. As to `Cn1c(/C=C/c2cc3ccccc3[n+]3c2-c2c(ccc4c2-c2cccc[n+]2CCC4)CCC3)cc2ccccc21` [MSC-C10-10, 19-((E)-2-(1-methyl-1H-indol-2-yl)vinyl)-6,7,8,11,12,13-hexahydropyrido[1′″,2′″:1″,2″]azepino[4″,3″:5′,6′]benzo[1′,2′:3,4]azepino[1,2-a]quinoline-5,14-diium trifluoromethanesulfonate], the inhibition at 50 µM in experiment [1] is over 10%. Also, the activity at 50 µM in experiment [1] (setting [2]) is 85%. The IC50 with HUVEC (setting [3]) was at least 100 µM; in the experiment on HUVEC (setting [4]), over 100 µM; with CCRF-CEM (setting [5]), 11 to 25 µM; in the experiment with CCRF-CEM (setting [6]), under 25 µM.

For `Cc1[nH]c2ccccc2c1/C=C/c1cc2ccccc2[n+]2c1-c1c(ccc3c1-c1cccc[n+]1CCC3)CCC2.O=S(=O)([O-])C(F)(F)F.O=S(=O)([O-])C(F)(F)F` [MSC-C10-11, 19-((E)-2-(2-methyl-1H-indol-3-yl)vinyl)-6,7,8,11,12,13-hexahydropyrido[1′″,2″:1″,2″]azepino[4″,3″:5′,6′]benzo[1′,2′:3,4]azepino[1,2-a]quinoline-5,14-diium trifluoromethanesulfonate], the “luciferase expression relative to control (control = 100%)” value in experiment [1] (setting [2]) was found to be 74%. Further, the IC50 in the experiment with HUVEC (72 hours of treatment, values above 100 μmol·l^−1 obtained by extrapolation, read-out: IC50 HUVEC) is at least 100 µM; in the experiment with CCRF-CEM (72 hours of treatment, read-out: IC50 CCRF CEM), 11 to 25 µM.

Consider `C(=C\c1c[nH]c2c1ccc1ccccc12)/c1cc2ccccc2[n+]2c1-c1c(ccc3c1-c1cccc[n+]1CCC3)CCC2` [MSC-C13-16, 19-((E)-2-(1H-benzo[g]indol-3-yl)vinyl)-6,7,8,11,12,13-hexahydropyrido[1′″,2′″:1″,2″]azepino[4″,3″:5′,6′]benzo[1′,2′:3,4]azepino[1,2-a]quinoline-5,14-diium trifluoromethanesulfonate], for which, in experiment [1], the inhibition at 50 µM is over 10%. The activity at 50 µM in experiment [1] (setting [2]) came to 85%. Further, the IC50 in the experiment with HUVEC (setting [3]) is at least 100 µM; with HUVEC (setting [4]), over 100 µM; in the experiment on CCRF-CEM (setting [5]) it was at most 10 µM; with CCRF-CEM (setting [6]), under 25 µM.

For the molecule `Cc1c(C)c2c(c3c1CC[n+]1ccc4ccccc4c1-3)-c1cccc(/C=C/c3ccc(-c4ccc(-c5cccs5)s4)s3)[n+]1CC2.O=S(=O)([O-])C(F)(F)F.O=S(=O)([O-])C(F)(F)F` [VDJA-C13-6, (E)-11-(2-([2,2′;5′,2″-terthiophen]-5-yl)vinyl)-6,7-dimethyl-4,5,8,9-tetrahydroisoquinolino[1,2-a]pyrido[1,2-k][2,9]phenanthroline-3,10-diium trifluoromethanesulfonate], the entries for the “Quantification of expression relative to control (%)” value in experiment [1] (10 μmol · l^−1), in experiment [1] (50 μmol · l^−1) and in experiment [1] (150 μmol · l^−1) were 59.0 ± 17.9%, 27.1 ± 0.8% and 15.3 ± 2.9%, respectively. In experiment [1] (setting [2]), the activity at 50 µM turned out to be 27%. The results for the IC50 with HUVEC (setting [3]) and in the experiment on CCRF-CEM (setting [5]) were at least 51 µM and 11 to 25 µM, respectively.
